Data set [1] concerns the target T1, rat mGlu2 receptor (Rattus norvegicus, UniProt P31421).
T1 construct: expressed in transfected cells; membranes prepared
The data set is described as follows: [3H]-LY354740 binding on mGlu2 transfected CHO cell membranes. Conditions: inhibition of 10 nM [3H]-LY354740 binding, membranes of CHO cells transfected with rat mGlu2, room temperature, 1 hour. Summed up: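 Membranes from CHO cells stably expressing rat mGlu2 (25 μg protein/ml) incubated 1 hour at room temperature with 10 nM [3H]-LY354740 and test compound in 50 mM Tris-HCl, 2 mM MgCl2, pH 7.4. Non-specific binding defined with 10 μM DCG IV; bound radioactivity counted after filtration. IC50 from four-parameter logistic fit.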

Structures are written as SMILES. Where only a bound is given, the exact number is not on record here.

T1 sequence (P31421 19-872): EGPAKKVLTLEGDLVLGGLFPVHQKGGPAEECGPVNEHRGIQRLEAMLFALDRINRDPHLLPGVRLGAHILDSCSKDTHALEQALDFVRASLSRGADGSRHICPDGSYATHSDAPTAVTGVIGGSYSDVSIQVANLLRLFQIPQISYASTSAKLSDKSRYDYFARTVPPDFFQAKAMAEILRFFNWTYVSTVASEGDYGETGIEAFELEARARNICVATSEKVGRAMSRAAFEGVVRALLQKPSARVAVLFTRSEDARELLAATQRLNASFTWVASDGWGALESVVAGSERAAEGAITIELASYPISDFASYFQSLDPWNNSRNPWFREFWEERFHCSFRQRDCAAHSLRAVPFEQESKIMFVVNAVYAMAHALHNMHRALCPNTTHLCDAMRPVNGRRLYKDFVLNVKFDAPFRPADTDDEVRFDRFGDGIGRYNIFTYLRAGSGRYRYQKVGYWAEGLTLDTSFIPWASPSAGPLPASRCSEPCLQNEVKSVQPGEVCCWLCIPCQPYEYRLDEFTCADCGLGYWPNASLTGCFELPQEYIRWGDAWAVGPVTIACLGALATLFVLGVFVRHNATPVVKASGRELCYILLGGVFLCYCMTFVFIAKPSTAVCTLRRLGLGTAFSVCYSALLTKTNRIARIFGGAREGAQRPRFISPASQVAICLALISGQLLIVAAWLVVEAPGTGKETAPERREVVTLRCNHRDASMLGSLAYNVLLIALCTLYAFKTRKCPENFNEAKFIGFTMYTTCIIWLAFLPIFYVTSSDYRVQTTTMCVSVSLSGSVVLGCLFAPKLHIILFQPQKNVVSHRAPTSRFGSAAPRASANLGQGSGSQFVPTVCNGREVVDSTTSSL

For the molecule `Cc1cc(-c2ccc(C(F)(F)F)cc2)nc(-c2cccc(-c3ccc(S(=O)(=O)NC(C)(C)C)s3)c2)c1` [Example 272, 5-{3-[4-Methyl-6-(4-trifluoromethyl-phenyl)-pyridin-2-yl]-phenyl}-thiophene-2-sulfonic acid tert-butylamide], the melting point was found to be 156 °C. The same molecule returned an inhibition constant Ki in data set [1] of 80 nM.

For `Cc1cc(-c2ccc(C(F)(F)F)cc2)nc(-c2cccc(-c3cccc(S(N)(=O)=O)c3)c2)c1` [Example 274, 3′-[4-Methyl-6-(4-trifluoromethyl-phenyl)-pyridin-2-yl]-biphenyl-3-sulfonic acid amide], the melting point worked out at 200 °C. This molecule also registered a Ki in data set [1] of 4 nM.

`Cc1cc(-c2ccc(C(F)(F)F)cc2)nc(-c2cccc(-c3cncc(S(N)(=O)=O)c3)c2)c1` [Example 275, 5-{3-[4-Methyl-6-(4-trifluoromethyl-phenyl)-pyridin-2-yl]-phenyl}-pyridine-3-sulfonic acid amide] had a melting point of 217 °C. In data set [1], the affinity corresponds to a Ki of 87 nM.

`Cc1nc(-c2cn(-c3cc(C(F)(F)F)cc(-c4ccc(C(F)(F)F)cc4)n3)cn2)sc1S(=O)(=O)NC(C)(C)C` [Example 292, 4-Methyl-2-{1-[4-trifluoromethyl-6-(4-trifluoromethyl-phenyl)-pyridin-2-yl]-1H-imidazol-4-yl}-thiazole-5-sulfonic acid tert-butylamide] came in with a melting point of more than 250 °C. In addition, the affinity in data set [1] corresponds to a Ki of 28 nM.

Take `Cc1nc(-c2cn(-c3cc(C(F)(F)F)cc(-c4ccc(C(F)(F)F)cc4)n3)cn2)sc1S(N)(=O)=O` [Example 294, 4-Methyl-2-{1-[4-trifluoromethyl-6-(4-trifluoromethyl-phenyl)-pyridin-2-yl]-1H-imidazol-4-yl}-thiazole-5-sulfonic acid amide]: the melting point was 187 °C (dec.). Besides, in data set [1], the Ki is 13 nM.

Consider `Cc1cc(-c2ccc(C(F)(F)F)cc2)cc(-c2ccnc(-c3cccc([N+](=O)[O-])c3)c2)n1` [Example 306, 6-Methyl-2′-(3-nitro-phenyl)-4-(4-trifluoromethyl-phenyl)-[2,4′]bipyridinyl], for which the melting point is 164 °C. In data set [1], this molecule showed a Ki of 38 nM.

Molecule `NS(=O)(=O)c1cnc(-c2cn(-c3cc(-c4ccc(C(F)(F)F)cc4)cc(C(F)(F)F)n3)cn2)s1` [Example 313, 2-{1-[6-Trifluoromethyl-4-(4-trifluoromethyl-phenyl)-pyridin-2-yl]-1H-imidazol-4-yl}-thiazole-5-sulfonic acid amide] showed a melting point of more than 250 °C. In addition, in data set [1], affinity was put at a Ki of 18 nM.

As for `Cc1cc(-c2ccc(C(F)(F)F)cc2)cc(-c2ccnc(-c3cccc(NS(C)(=O)=O)c3)c2)n1` [Example 318, N-{3-[6-Methyl-4-(4-trifluoromethyl-phenyl)-[2,4′]bipyridinyl-2′-yl]-phenyl}-methanesulfonamide], the melting point was 196 °C. Further, the inhibition constant Ki in data set [1] stood at 4 nM.

Molecule `Cc1cc(-c2ccc(C(F)(F)F)cc2)nc(-c2ccnc(-c3ccc(S(=O)(=O)NC(C)(C)C)s3)c2)c1` [Example 320, 5-[4-Methyl-6-(4-trifluoromethyl-phenyl)-[2,4′]bipyridinyl-2′-yl]-thiophene-2-sulfonic acid tert-butylamide] registered a melting point of 209 °C. The same molecule came in with a Ki in data set [1] of 16 nM.

With `Cc1cc(-c2ccc(C(F)(F)F)cc2)cc(-c2ccnc(-c3cccc(S(=O)(=O)N4CCOCC4)c3)c2)n1` [Example 346, 6-Methyl-2′-[3-(morpholine-4-sulfonyl)-phenyl]-4-(4-trifluoromethyl-phenyl)-[2,4′]bipyridinyl], the melting point came to 115 °C. In addition, the inhibition constant Ki in data set [1] was found to be 4 nM.

Consider `Cc1cc(-c2ccc(C(F)(F)F)cc2)cc(-c2ccnc(-c3cccc(S(=O)(=O)N4CCN(C)CC4)c3)c2)n1` [Example 350, 6-Methyl-2′-[3-(4-methyl-piperazine-1-sulfonyl)-phenyl]-4-(4-trifluoromethyl-phenyl)-[2,4′]bipyridinyl], for which the melting point was 180 °C (dec.). Besides, the inhibition constant Ki in data set [1] is 22 nM.

Turning to `Cc1cc(-c2ccc(C(F)(F)F)cc2)cc(-c2cccc(-c3cccc(S(C)(=O)=O)c3)c2)n1` [Example 353, 2-(3′-Methanesulfonyl-biphenyl-3-yl)-6-methyl-4-(4-trifluoromethyl-phenyl)-pyridine], the melting point was 110 °C (dec.). The molecule also registered a Ki in data set [1] of 3 nM.

With `Cc1cc(-c2ccc(C(F)(F)F)cc2)cc(-c2ccnc(-c3cccc(S(C)(=O)=O)c3)n2)n1` [Example 355, 2-(3-Methanesulfonyl-phenyl)-4-[6-methyl-4-(4-trifluoromethyl-phenyl)-pyridin-2-yl]-pyrimidine], the melting point is 208 °C. Besides, affinity in data set [1] was put at a Ki of 1 nM.

In turn, `Cc1cc(-c2ccc(C(F)(F)F)cc2)cc(-c2cccc(-c3cccc(S(C)(=O)=O)c3)n2)n1` [Example 356, 6′-(3-Methanesulfonyl-phenyl)-6-methyl-4-(4-trifluoromethyl-phenyl)-[2,2′]bipyridinyl] registered a melting point of 186 °C. Moreover, in data set [1], the Ki turned out to be 1 nM.

In the case of `CSc1cccc(-c2cccc(-c3cc(-c4ccc(C(F)(F)F)cc4)cc(C)n3)n2)c1` [Example 357, 6-Methyl-6′-(3-methylsulfanyl-phenyl)-4-(4-trifluoromethyl-phenyl)-[2,2′]bipyridinyl], the melting point is 144 °C. The molecule also displayed an inhibition constant Ki in data set [1] of 39 nM.

For `Cc1cc(-c2ccc(C(F)(F)F)cc2)cc(-c2ccnc(-c3ccnc(N)c3)n2)n1` [Example 360, 4-{4-[6-Methyl-4-(4-trifluoromethyl-phenyl)-pyridin-2-yl]-pyrimidin-2-yl}-pyridin-2-ylamine], the melting point amounted to 217 °C. In data set [1], this molecule displayed an inhibition constant (Ki) of 5 nM.

`O=S(=O)(c1cccc(-c2cc(-c3nc(-c4ccc(C(F)(F)F)cc4)cc(C(F)(F)F)n3)ccn2)c1)N1CCOCC1` [Example 377, 4-(3-{4-[4-Trifluoromethyl-6-(4-trifluoromethyl-phenyl)-pyrimidin-2-yl]-pyridin-2-yl}-benzenesulfonyl)-morpholine] came in with a melting point of 202 °C. Moreover, the affinity in data set [1], expressed as Ki, was 7 nM.

Molecule `Nc1ccc(-c2cn(-c3nc(-c4ccc(F)c(F)c4)cc(C(F)(F)F)n3)cn2)cn1` [Example 384, 5-{1-[4-(3,4-Difluoro-phenyl)-6-trifluoromethyl-pyrimidin-2-yl]-1H-imidazol-4-yl}-pyridin-2-ylamine] displayed a melting point of 232 °C. The molecule further returned an inhibition constant (Ki) in data set [1] of 32 nM.

On to `O=S(=O)(c1cccc(-c2cc(-c3nc(-c4ccc(C(F)(F)F)cc4)cc(C(F)(F)F)n3)ccn2)c1)N1CCCC1` [Example 390, 2-{2-[3-(Pyrrolidine-1-sulfonyl)-phenyl]-pyridin-4-yl}-4-trifluoromethyl-6-(4-trifluoromethyl-phenyl)-pyrimidine], for which the melting point was 184 °C. The molecule also showed a Ki in data set [1] of 21 nM.

For `NS(=O)(=O)c1cccc(-c2cccc(-c3nc(-c4ccc(F)cc4)cc(C(F)(F)F)n3)c2)c1` [Example 394, 3′-[4-(4-Fluoro-phenyl)-6-trifluoromethyl-pyrimidin-2-yl]-biphenyl-3-sulfonic acid amide], the melting point came to 208 °C. In data set [1], this molecule had a Ki of 3 nM.

Consider `Cc1cc(-c2ccc(C(F)(F)F)cc2)cc(-c2cccc(-c3cccc(S(=O)(=O)NCC(F)(F)F)c3)n2)n1` [Example 445, 3-[6′-Methyl-4′-(4-trifluoromethyl-phenyl)-[2,2′]bipyridinyl-6-yl]-N-(2,2,2-trifluoro-ethyl)-benzenesulfonamide], for which the melting point was 198 °C. The molecule also displayed a Ki in data set [1] of 3 nM.

In turn, `CCOc1cc(-c2cc(C(F)(F)F)nc(-c3ccnc(-c4cccc(S(N)(=O)=O)c4)c3)n2)ccc1C(F)(F)F` [Example 452, 3-{4-[4-(3-Ethoxy-4-trifluoromethyl-phenyl)-6-trifluoromethyl-pyrimidin-2-yl]-pyridin-2-yl}-benzenesulfonamide] had a melting point of 223.5 °C. Moreover, the Ki in data set [1] amounted to 16 nM.

These data come from patent publication US8183262B2, “Pyridine derivatives as mGluR2 antagonists” (Hoffmann-La Roche Inc., priority 2007, dated 2012).
